Consider one compound from patent US20010055776A1, “High throughput cell-based assay kits” (priority 2000, published 2001).

Broadly, the inhibition is the drop in the measured response relative to a control, in per cent.

The experiment has as its system hemoglobin synthesis in human erythroid progenitors. Description: Filter plate assay of hemoglobin (HbA) in differentiating erythroid progenitors with Europium-labeled anti-hemoglobin. The experiment is classed as cell-based. The note with it: 168 h, 0.5 mM succinylacetone, 1,000 cells/well, 3.0 μm PCF filter plate, IL-3, IL-6, SCF, EPO, 7 days, read-out: succinylacetone-mediated inhibition of hemoglobin. The protocol:
FIG. 6. Adult hemoglobin (HbA) expression by differentiating human erythroid progenitors. Cryopreserved progenitors were thawed and seeded into wells of a 96-well PCF filter plate at a density of 1,000 cells/well and cultured in the presence of IL-3, IL-6, EPO, and SCF ±/−0.5 mM succinylacetone. Hemoglobin was assayed by the filter plate procedure on day 7.
To establish the linearity of the assay relative to cell number, peripheral blood erythrocytes were seeded into wells of PCF filter plates (0.4 μm pore size for peripheral blood erythrocytes and 3.0 μm pore size for progenitor cells), fixed with 0.1 ml 1% formaldehyde for 30 minutes and then washed once with Hank's balanced salt solution (HBSS) (0.2 ml/well) and twice with HBSS containing 0.1% bovine serum albumin (BSA). All washes were done in a Millipore Silent Screen vacuum manifold with a vacuum pressure of 5″ Hg.
The cells were then permeabilized by incubation with 0.2 ml 0.1% Triton X-100 in HBSS-BSA for 10 minutes at room temperature. […] Enhancement Solution (Wallac) was added (0.1 ml/well), and after 5 minutes Europium fluorescence (excitation at […] and emission at 615 nm) was measured over a 400 μsecond time period after an initial delay of 400 μseconds with a Wallac Victor spectrofluorimeter. […]

On to `CC(=O)CC(=O)CCC(=O)O` [succinylacetone], for which the inhibition at 500 µM turned out to be 86%.
